These results are taken from publication PMC10498667 (Chemical Science, 2023).

In one data set the target is T1, Aβ40 (Homo sapiens, UniProt P05067).
T1 construct: Ab40 ([…]-; purchased Peptide Institute, Inc. (Osaka, Japan)
In words: ITC binding of 6 with Aβ40. On the procedure:
Distinct reactivities of 6 with metal-free Aβ and metal–Aβ were supported by various biophysical approaches. […] In the absence of Aβ, an increase or decrease in the absorption of the peaks at ca. 265, 300, 340, and 410 nm was monitored for 24 h (Fig. S18 ^†), which could be resulted from the oxidation of 6 in the presence of O2.[69] These spectral changes were accelerated upon incubation with Aβ, indicative of its impact on the oxidative modification of 6. Such transformation of 6 was also indicated in the presence of Cu(II) or Zn(II) with and without Aβ. To probe the interaction of 6 with Aβ, their binding properties were analyzed by isothermal titration calorimetry (ITC). For the association between 6 and Aβ, we recorded the heat change upon constant titration of the flavonoid into the solution of Aβ, where the dilution heat was also measured to avoid the heat change induced by its addition into the buffered solution. […] Thus, 6 can bind to Aβ with a micromolar binding affinity. […]
ITC. The solutions of Ab and 6 were subjected to degassing under vacuum for 3 min prior to loading into the instrument. […] […] The initial delay and the reference power were 60 s and 10 µcal/s, respectively. Dilution heat of 6 only was also measured under the same experimental conditions.
The ITC thermogram and binding isotherm were shown after the subtraction of the dilution heat.
The binding isotherm after baseline correction was fitted to the one-set-of-sites binding model using the MicroCal Origin software (version 7.0). […]

Data set [1] has as its system human neuroblastoma 5Y cells. In words: MTT cytotoxicity assay. The class given is cell-based. The conditions noted are these: at up to 100 μM; 24 h; 5Y cells; relative to DMSO. On the procedure: Flavonoid 6 was synthesized following previously reported procedures with modifications.[66–68] […] It should be noted that cell viability was calculated, relative to that of the cells containing an equivalent amount of DMSO.
Cell viability was determined by the MTT assay [MTT = 3-(4,5-dimethylthiazol-2-yl)-2,5-diphenyltetrazolium bromide]. Cells were seeded in a 96-well plate (15,000 cells/100 µL) and treated with the samples {[flavonoid] = 5, 10, 25, 50, and 100 µM (1% v/v DMSO)}. After 24 h incubation, 5Y cells were washed with phosphate buffered saline (PBS; GIBCO). MTT [5 mg/mL in PBS (pH 7.4, GIBCO); 25 µL] was added to each well and the plate was incubated for 4 h at 37 °C. The formazan produced by cells was solubilized using an acidic solution of DMF (pH 4.5, 50% v/v, aq) and sodium dodecyl sulfate (SDS; 20% w/v) overnight at room temperature in the dark. Absorbance was measured at 600 nm by a microplate reader (Molecular Devices). Cell viability, relative to that of the cells containing an equivalent amount of DMSO, was calculated.
The measurements were conducted in triplicate. […]

SMILES strings stand for the structures.

T1 sequence (P05067 672-711 limits assumed): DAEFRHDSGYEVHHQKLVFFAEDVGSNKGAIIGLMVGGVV

Regarding `O=c1c(-c2ccc(O)c(O)c2)coc2cc(O)c(O)c(O)c12` [compound 6, 3-(3,4-dihydroxyphenyl)-5,6,7-trihydroxy-4H-chromen-4-one], the Kd at Aβ40 (one-set-of-sites model, 10 °C, read-out: Binding affinity) is roughly 20.5 µM. For the same molecule, on Aβ40 (pH 7.4, 10 °C), the TΔS was 5.4 (±0.7) kcal mol^−1, the ΔG is −6.0 (±0.5) kcal mol^−1 and the ΔH is reported as −0.6 (±0.5) kcal mol^−1. The cell survival in data set [1] is given as greater than 90%.
